Source: US8501977B2, “Platinum complex and pharmaceutical composition containing the same” (Unitech Co., Ltd., priority 2008, dated 2013)

Assays:
[1] = test system: A549 (human lung cancer cell); assay: MTS cell proliferation test, A549 (Embodiment 8); format: cell-based
Procedure: (§1) Respectively, the S medicine test solution was prepared by dissolving the ((S,S,S) cis,cis-spiro[4,4]nonane-1,6-diamine)oxalatoplatinum(II) complex (compound 2; hereinafter, it is described as S medicine) into the dimethylsulfoxide (DMSO) with the concentration of 10 mg/ml and the R medicine test solution was prepared by dissolving the ((R,R,R)cis,cis-spiro[4,4]nonane-1,6-diamine) oxalatoplatinum(II) complex (compound 3; hereinafter, it is described as R medicine) into the dimethylsulfoxide (DMSO) with the concentration of 10 mg/ml.
(§2) The test was performed by using A549 (human lung cancer cell), LU65A (human lung cancer cell), RERF-LC-MA (human lung cancer cell), LU99 (human lung cancer cell), H460 (human lung cancer cell), HCT116 (human colon cancer cell), HT-29 (human colon cancer cell), MKN-45 (human gastric cancer cell), MKN-1 (human gastric cancer cell), U937 (human lymphoma cell), KP-1N (human pancreas cancer cell) and B2452 (human mesotheliama cell) as the cancer cell.
(§3) These cells were suspended in the each culture medium that the serum of 10% was added, and were dispensed in 96-well plate. And then, these were cultured in 5% CO2 at 37 degrees centigrade during a night. Next day, the S medicine test solution and the R medicine test solution were prepared in the culture medium to the various concentrations (5, 10, 20 μg/ml), and were dispensed into the plates that the cells were set preliminarily. And further, these were cultured in 5% CO2 at 37 degrees centigrade for three days.
(§4) The cell proliferation after the medicine addition was measured on the 3rd day from the 1st day after the medicine addition by the MTS method (kit for cell proliferation test manufactured by Promega Company).
(§5) The inhibition rate (%) of the cell proliferation was obtained from the measured MTS value by the following formula. Inhibition rate(%)=(1-MTS value of medicine addition group/MTS value of medicine non-addition group)×100
(§6) Because the value which was obtained by the above-mentioned formula represents the inhibition rate of the cell proliferation, the higher the numerical value is, the higher the medicine effect is. It is desired that the one whose value is 50% or more has the medicine effect.

[2] = test system: LU65A (human lung cancer cell); assay: MTS cell proliferation test, LU65A (Embodiment 8); format: cell-based
Procedure: as §1, §2, §3, §4, §5, §6

[3] = test system: RERF-LC-MA (human lung cancer cell); assay: MTS cell proliferation test, RERF-LC-MA (Embodiment 8); format: cell-based
Procedure: as §1, §2, §3, §4, §5, §6

[4] = test system: LU99 (human lung cancer cell); assay: MTS cell proliferation test, LU99 (Embodiment 8); format: cell-based
Procedure: as §1, §2, §3, §4, §5, §6

[5] = test system: H460 (human lung cancer cell); assay: MTS cell proliferation test, H460 (Embodiment 8); format: cell-based
Procedure: as §1, §2, §3, §4, §5, §6

[6] = test system: HCT116 (human colon cancer cell); assay: MTS cell proliferation test, HCT116 (Embodiment 8); format: cell-based
Procedure: as §1, §2, §3, §4, §5, §6

[7] = test system: HT-29 (human colon cancer cell); assay: MTS cell proliferation test, HT-29 (Embodiment 8); format: cell-based
Procedure: as §1, §2, §3, §4, §5, §6

[8] = test system: MKN-45 (human gastric cancer cell); assay: MTS cell proliferation test, MKN-45 (Embodiment 8); format: cell-based
Procedure: as §1, §2, §3, §4, §5, §6

[9] = test system: MKN-1 (human gastric cancer cell); assay: MTS cell proliferation test, MKN-1 (Embodiment 8); format: cell-based
Procedure: as §1, §2, §3, §4, §5, §6

[10] = test system: U937 (human lymphoma cell); assay: MTS cell proliferation test, U937 (Embodiment 8); format: cell-based
Procedure: as §1, §2, §3, §4, §5, §6

[11] = test system: KP-1N (human pancreas cancer cell); assay: MTS cell proliferation test, KP-1N (Embodiment 8); format: cell-based
Procedure: as §1, §2, §3, §4, §5, §6

[12] = test system: H2452 cell (human mesothelicana cell); assay: MTS cell proliferation test, H2452 (Embodiment 8); format: cell-based
Procedure: as §1, §2, §3, §4, §5, §6

tumor cells = assay: MTS cell proliferation test, all cancer cells of Embodiment 8; format: cell-based, human; conditions: summary of Table 2 in words
Procedure: as §1
as §2, with “cell. […]” for “cell.”
as §4
The inhibition rate (%) of the cell proliferation was obtained from the measured MTS value by the following formula. […]

SMILES: NC1CCCC12CCCC2N.O=C1[O][Pt][O]C1=O [S medicine, ((S,S,S) cis,cis-spiro[4,4]nonane-1,6-diamine)oxalatoplatinum(II) complex]
- Inhibition rate of cell proliferation after 3 days from medicine addition (%) ([1]; A549, 5 μg/ml): X (X: 0~25%)
- Inhibition rate of cell proliferation after 3 days from medicine addition (%) ([1]; A549, 10 μg/ml): ◯ (◯: 51~75%)
- Inhibition rate of cell proliferation after 3 days from medicine addition (%) ([1]; A549, 20 μg/ml): ⊚ (⊚: 76~100%)
- Inhibition rate of cell proliferation after 3 days from medicine addition (%) ([2]; 5 μg/ml): ◯ (◯: 51~75%)
- Inhibition rate of cell proliferation after 3 days from medicine addition (%) ([2]; 10 μg/ml): ⊚ (⊚: 76~100%)
- Inhibition rate of cell proliferation after 3 days from medicine addition (%) ([2]; 20 μg/ml): ⊚ (⊚: 76~100%)
- Inhibition rate of cell proliferation after 3 days from medicine addition (%) ([3]; 5 μg/ml): X (X: 0~25%)
- Inhibition rate of cell proliferation after 3 days from medicine addition (%) ([3]; 10 μg/ml): Δ (Δ: 26~50%)
- Inhibition rate of cell proliferation after 3 days from medicine addition (%) ([3]; 20 μg/ml): ◯ (◯: 51~75%)
- Inhibition rate of cell proliferation after 3 days from medicine addition (%) ([4]; LU99, 5 μg/ml): ◯ (◯: 51~75%)
- Inhibition rate of cell proliferation after 3 days from medicine addition (%) ([4]; LU99, 10 μg/ml): ⊚ (⊚: 76~100%)
- Inhibition rate of cell proliferation after 3 days from medicine addition (%) ([4]; LU99, 20 μg/ml): ⊚ (⊚: 76~100%)
- Inhibition rate of cell proliferation after 3 days from medicine addition (%) ([5]; H460, 5 μg/ml): Δ (Δ: 26~50%)
- Inhibition rate of cell proliferation after 3 days from medicine addition (%) ([5]; H460, 10 μg/ml): ◯ (◯: 51~75%)
- Inhibition rate of cell proliferation after 3 days from medicine addition (%) ([5]; H460, 20 μg/ml): ⊚ (⊚: 76~100%)
- Inhibition rate of cell proliferation after 3 days from medicine addition (%) ([6]; HCT116, 5 μg/ml): ◯ (◯: 51~75%)
- Inhibition rate of cell proliferation after 3 days from medicine addition (%) ([6]; HCT116, 10 μg/ml): ◯ (◯: 51~75%)
- Inhibition rate of cell proliferation after 3 days from medicine addition (%) ([6]; HCT116, 20 μg/ml): ◯ (◯: 51~75%)
- Inhibition rate of cell proliferation after 3 days from medicine addition (%) ([7]; HT-29, 5 μg/ml): Δ (Δ: 26~50%)
- Inhibition rate of cell proliferation after 3 days from medicine addition (%) ([7]; HT-29, 10 μg/ml): Δ (Δ: 26~50%)
- Inhibition rate of cell proliferation after 3 days from medicine addition (%) ([7]; HT-29, 20 μg/ml): ◯ (◯: 51~75%)
- Inhibition rate of cell proliferation after 3 days from medicine addition (%) ([8]; MKN-45, 5 μg/ml): ⊚ (⊚: 76~100%)
- Inhibition rate of cell proliferation after 3 days from medicine addition (%) ([8]; MKN-45, 10 μg/ml): ⊚ (⊚: 76~100%)
- Inhibition rate of cell proliferation after 3 days from medicine addition (%) ([8]; MKN-45, 20 μg/ml): ⊚ (⊚: 76~100%)
- Inhibition rate of cell proliferation after 3 days from medicine addition (%) ([9]; MKN-1, 5 μg/ml): ◯ (◯: 51~75%)
- Inhibition rate of cell proliferation after 3 days from medicine addition (%) ([9]; MKN-1, 10 μg/ml): ⊚ (⊚: 76~100%)
- Inhibition rate of cell proliferation after 3 days from medicine addition (%) ([9]; MKN-1, 20 μg/ml): ⊚ (⊚: 76~100%)
- Inhibition rate of cell proliferation after 3 days from medicine addition (%) ([10]; U937, 5 μg/ml): ⊚ (⊚: 76~100%)
- Inhibition rate of cell proliferation after 3 days from medicine addition (%) ([10]; U937, 10 μg/ml): ⊚ (⊚: 76~100%)
- Inhibition rate of cell proliferation after 3 days from medicine addition (%) ([10]; U937, 20 μg/ml): ⊚ (⊚: 76~100%)
- Inhibition rate of cell proliferation after 3 days from medicine addition (%) ([11]; 5 μg/ml): Δ (Δ: 26~50%)
- Inhibition rate of cell proliferation after 3 days from medicine addition (%) ([11]; 10 μg/ml): ◯ (◯: 51~75%)
- Inhibition rate of cell proliferation after 3 days from medicine addition (%) ([11]; 20 μg/ml): ⊚ (⊚: 76~100%)
- Inhibition rate of cell proliferation after 3 days from medicine addition (%) ([12]; H2452, 5 μg/ml): X (X: 0~25%)
- Inhibition rate of cell proliferation after 3 days from medicine addition (%) ([12]; H2452, 10 μg/ml): Δ (Δ: 26~50%)
- Inhibition rate of cell proliferation after 3 days from medicine addition (%) ([12]; H2452, 20 μg/ml): Δ (Δ: 26~50%)
- medicine effect for the many tumor cells (tumor cells): high medicine effect compared with the oxaliplatin
